Among the data in PubChem BioAssay AID330 (DTP/NCI, 2004) are T/C values, retold here.

The test system of this test is P388 leukemia ip, CD2F1 mice, survival T/C. The experiment in a line: NCI In Vivo Anticancer Drug Screen. Data for tumor model P388 Leukemia (intraperitoneal) in CD2F1 (CDF1) mice. As to conditions: endpoint: median survival time, higher = longer survival. In short, it runs like this: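 Mice carrying the transplanted tumor received test compound or vehicle. Survival was recorded in each group, and the value is the treated-group measurement divided by that of the vehicle-treated control group.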

[1] abbreviates: dose: 25.0 mg/kg/injection, schedule: Q01DX009 (ip), vehicle: saline.
The mark [2] stands for this setting: dose: 50.0 mg/kg/injection, schedule: Q01DX009 (ip), vehicle: saline.
[3] abbreviates: dose: 100.0 mg/kg/injection, schedule: Q01DX009 (ip), vehicle: saline.
The mark [4] stands for this setting: dose: 200.0 mg/kg/injection, schedule: Q01DX009 (ip), vehicle: saline.
[5] abbreviates: dose: 25.0 mg/kg/injection, schedule: Q01DX009 (ip), vehicle: saline with Tween-80.
[6] abbreviates: dose: 50.0 mg/kg/injection, schedule: Q01DX009 (ip), vehicle: saline with Tween-80.
Setting [7] is: dose: 100.0 mg/kg/injection, schedule: Q01DX009 (ip), vehicle: saline with Tween-80.
[8] abbreviates: dose: 50.0 mg/kg/injection, schedule: Q01DX005 (ip), vehicle: Klucel (hydroxypropylcellulose) (HPC).
The mark [9] stands for this setting: dose: 100.0 mg/kg/injection, schedule: Q01DX005 (ip), vehicle: Klucel (hydroxypropylcellulose) (HPC).
Where [10] appears, read: dose: 200.0 mg/kg/injection, schedule: Q01DX005 (ip), vehicle: Klucel (hydroxypropylcellulose) (HPC).
The mark [11] stands for this setting: dose: 50.0 mg/kg/injection, schedule: Q01DX005 (ip), vehicle: saline with Tween-80.
The mark [12] stands for this setting: dose: 60.0 mg/kg/injection, schedule: Q01DX005 (ip), vehicle: saline with Tween-80.
Setting [13] is: dose: 120.0 mg/kg/injection, schedule: Q01DX005 (ip), vehicle: saline with Tween-80.
The mark [14] stands for this setting: dose: 240.0 mg/kg/injection, schedule: Q01DX005 (ip), vehicle: saline with Tween-80.

Molecules are shown by their SMILES. Several values for one entry are separate records, joined by “and”; a condition that tells them apart may be missing. Identical values can stand only once. Inconclusive results and toxic doses are left out.

Take `CC(C)(C)C(=O)Oc1ccc[nH]c1=O`: the T/C was 100 % of control and 110 % of control under setting [1]; 106 % of control and 116 % of control under setting [2]; 100 % of control and 116 % of control under setting [3]; 121 % of control and 94 % of control under setting [4]; 106 % of control and 109 % of control (dose: 400.0 mg/kg/injection, schedule: Q01DX009 (ip), vehicle: saline).
On to `C1CSCCSCCCSCCSC1`, for which the T/C is, setting by setting: under setting [5], 91 % of control; under setting [6], 106 % of control and 90 % of control; under setting [7], 91 % of control and 92 % of control; (dose: 200.0 mg/kg/injection, schedule: Q01DX009 (ip), vehicle: saline with Tween-80) 96 % of control; (dose: 400.0 mg/kg/injection, schedule: Q01DX009 (ip), vehicle: saline with Tween-80) 91 % of control.
With `C=C1C(=O)OC2/C=C(\C)CC/C=C(/C(=O)OC)C(OC(=O)C(C)C(C)O)C(OC(=O)C(C)(O)C(C)O)C12` (centres undefined), the T/C (dose: 6.0 mg/kg/injection, schedule: Q01DX009 (ip), vehicle: Klucel (hydroxypropylcellulose) (HPC)) was 122 % of control; the T/C (dose: 8.0 mg/kg/injection, schedule: Q01DX009 (ip), vehicle: Klucel (hydroxypropylcellulose) (HPC)) was 122 % of control; the T/C (dose: 12.0 mg/kg/injection, schedule: Q01DX009 (ip), vehicle: Klucel (hydroxypropylcellulose) (HPC)) is 105 % of control.
Turning to `O=c1oc2c(c3c1CCCC3)c(=O)[nH]c1ccccc12`, the T/C under setting [8] is 111 % of control, the T/C under setting [9] was 116 % of control and the T/C under setting [10] is 115 % of control.
Consider `C=CCN(CC=C)C(CC(=O)C(C)(C)C)=NCC`, for which the T/C (dose: 12.5 mg/kg/injection, schedule: Q01DX009 (ip), vehicle: saline) is 104 % of control; the T/C under setting [1] is 106 % of control; the T/C under setting [2] is 100 % of control and 101 % of control.
As to `CC12CCC3C(CCC4CC(OC(=O)Cc5ccc(N(CCCl)CCCl)cc5)CCC43C)C1CCC(=O)N2` (centres undefined), the T/C is 112 % of control and 117 % of control (dose: 0.75 mg/kg/injection, schedule: Q01DX009 (ip), vehicle: saline with Tween-80); 111 % of control and 124 % of control (dose: 1.5 mg/kg/injection, schedule: Q01DX009 (ip), vehicle: saline with Tween-80); 169 % of control and 184 % of control (dose: 6.0 mg/kg/injection, schedule: Q01DX009 (ip), vehicle: saline with Tween-80); 220 % of control and 237 % of control (dose: 12.0 mg/kg/injection, schedule: Q01DX009 (ip), vehicle: saline with Tween-80); 104 % of control and 121 % of control (dose: 24.0 mg/kg/injection, schedule: Q01DX009 (ip), vehicle: saline with Tween-80).
With `C=CCOc1cc2c(cc1C(C)c1ccc(OCCC)cc1)OCO2` (centres undefined), the T/C under setting [11] was 97 % of control; the T/C (dose: 100.0 mg/kg/injection, schedule: Q01DX005 (ip), vehicle: saline with Tween-80) was 102 % of control; the T/C (dose: 200.0 mg/kg/injection, schedule: Q01DX005 (ip), vehicle: saline with Tween-80) was 107 % of control.
Regarding `CSc1cccc(NC(=O)OCCOc2ccc(-c3ccccc3)cc2)c1`, under “dose: 100.0 mg/kg/injection, schedule: Q01DX009 (ip), vehicle: Klucel (hydroxypropylcellulose) (HPC)”, the T/C is 87 % of control.
With `CCC[CH2][Sn]([CH2]CCC)([NH]c1ncnc2[nH]cnc12)[NH]c1ncnc2[nH]cnc12`, the T/C reads like this: (dose: 1.56 mg/kg/injection, schedule: Q01DX005 (ip), vehicle: Klucel (hydroxypropylcellulose) (HPC)) 98 % of control; (dose: 3.12 mg/kg/injection, schedule: Q01DX005 (ip), vehicle: Klucel (hydroxypropylcellulose) (HPC)) 110 % of control; (dose: 6.25 mg/kg/injection, schedule: Q01DX005 (ip), vehicle: Klucel (hydroxypropylcellulose) (HPC)) 121 % of control.
Consider `COc1cc(/C=C/Cc2cc3c(cc2O)OCO3)cc(OC)c1OC`, for which the T/C by setting is: under setting [12], 95 % of control; under setting [13], 90 % of control; under setting [14], 89 % of control.
Consider `Cc1cc(O)c(C=O)c2c1C(=O)Oc1c(COC(=O)/C=C/C(=O)O)c(O)c(C(=O)O)c(C)c1O2`, for which the T/C was 104 % of control (dose: 0.25 mg/kg/injection, schedule: Q01DX009 (ip), vehicle: saline with Tween-80); 96 % of control (dose: 0.5 mg/kg/injection, schedule: Q01DX009 (ip), vehicle: saline with Tween-80); 101 % of control (dose: 1.0 mg/kg/injection, schedule: Q01DX009 (ip), vehicle: saline with Tween-80); 90 % of control under setting [2]; 90 % of control under setting [3].
Turning to `O=c1nnc(O)c2ccn(O)cc1-2`, the T/C under setting [12] is 99 % of control, the T/C under setting [13] is 103 % of control and the T/C under setting [14] is 99 % of control.
Consider `C/C(=N/N/C=N/S(C)(=O)=O)c1ccccc1`, for which the T/C reads like this: under setting [8], 103 % of control; under setting [9], 100 % of control; under setting [10], 99 % of control.
As for `COC1(OC)/C(=N/NS(=O)(=O)c2ccc(C)cc2)C2CC1C1CC21` (centres undefined), the T/C reads like this: under setting [5], 98 % of control; under setting [6], 96 % of control; under setting [7], 96 % of control.
Regarding `COC(=O)/C=C(\C=C/C(=O)O)C(=O)O`, the T/C under setting [8] is 104 % of control, the T/C under setting [9] is 100 % of control and the T/C under setting [10] is 95 % of control.
With `Cn1nnnc1-c1cccc(F)c1`, the T/C runs as follows: (dose: 50.0 mg/kg/injection, schedule: Q01DX001 (ip), vehicle: Klucel (hydroxypropylcellulose) (HPC)) 101 % of control; (dose: 100.0 mg/kg/injection, schedule: Q01DX001 (ip), vehicle: Klucel (hydroxypropylcellulose) (HPC)) 102 % of control; (dose: 200.0 mg/kg/injection, schedule: Q01DX001 (ip), vehicle: Klucel (hydroxypropylcellulose) (HPC)) 104 % of control.
As for `CN(C)CC(CN(C)C)C(=O)c1ccc(Cl)c(Cl)c1`, the T/C was 108 % of control (dose: 12.5 mg/kg/injection, schedule: Q01DX005 (ip), vehicle: saline); 105 % of control (dose: 25.0 mg/kg/injection, schedule: Q01DX005 (ip), vehicle: saline); 100 % of control and 104 % of control (dose: 50.0 mg/kg/injection, schedule: Q01DX005 (ip), vehicle: saline).
For `CNC(=S)NNc1cccc([N+](=O)[O-])c1`, the T/C is, setting by setting: (dose: 25.0 mg/kg/injection, schedule: Q01DX009 (ip), vehicle: other) 96 % of control; (dose: 50.0 mg/kg/injection, schedule: Q01DX009 (ip), vehicle: other) 106 % of control; (dose: 100.0 mg/kg/injection, schedule: Q01DX009 (ip), vehicle: other) 91 % of control; (dose: 200.0 mg/kg/injection, schedule: Q01DX009 (ip), vehicle: other) 92 % of control.
Consider `COc1ccc2[nH]c(=O)c(C#N)c(C)c2c1`, for which the T/C was 95 % of control (dose: 12.5 mg/kg/injection, schedule: Q01DX005 (ip), vehicle: saline with Tween-80); 91 % of control (dose: 25.0 mg/kg/injection, schedule: Q01DX005 (ip), vehicle: saline with Tween-80); 104 % of control and 91 % of control under setting [11].
For the molecule `CC(=O)c1c(C)cc(C)c(C(C)=O)c1C`, the T/C was 102 % of control under setting [2], 96 % of control under setting [3] and 91 % of control under setting [4].
As to `Cc1ccc2nc3cc(N)ccc3c(-c3ccc(N)cc3)c2c1`, the T/C was 97 % of control under setting [8], 102 % of control under setting [9] and 97 % of control under setting [10].
For `S=P12OCCC(CO1)O2` (centres undefined), the T/C is, setting by setting: (dose: 100.0 mg/kg/injection, schedule: Q04DX003 (ip), vehicle: Klucel (hydroxypropylcellulose) (HPC)) 100 % of control; (dose: 200.0 mg/kg/injection, schedule: Q04DX003 (ip), vehicle: Klucel (hydroxypropylcellulose) (HPC)) 97 % of control; (dose: 400.0 mg/kg/injection, schedule: Q04DX003 (ip), vehicle: Klucel (hydroxypropylcellulose) (HPC)) 97 % of control.
For `O=C(O)c1cc(C(=O)O)c(C(=O)O)cc1C(=O)O`, the T/C is, setting by setting: (dose: 50.0 mg/kg/injection, schedule: Q01DX009 (ip), vehicle: water) 96 % of control; (dose: 100.0 mg/kg/injection, schedule: Q01DX009 (ip), vehicle: water) 100 % of control; (dose: 200.0 mg/kg/injection, schedule: Q01DX009 (ip), vehicle: water) 99 % of control.
As to `CNc1nnnc2c1sc1ccccc12`, the T/C (dose: 100.0 mg/kg/injection, schedule: Q01DX001 (ip), vehicle: saline with Tween-80) is 105 % of control; the T/C (dose: 200.0 mg/kg/injection, schedule: Q01DX001 (ip), vehicle: saline with Tween-80) was 102 % of control; the T/C (dose: 400.0 mg/kg/injection, schedule: Q01DX001 (ip), vehicle: saline with Tween-80) is 104 % of control.
